Measurements taken from patent US4882347A, “"N-imidazolyl derivatives of bicyclic compounds and pharmaceutical compositions containing the same"” (Farmitalia Carlo Erba, S.r.l., priority 1987, dated 1989).
Read-outs that look alike come from different tables or passages of the source.

Tests used:
glomerular TxA2 synthase = target: T1, glomerular TxA2 synthase (Rattus norvegicus, UniProt P49430); assay: in vitro TxA2 synthase inhibiting activity in isolated glomeruli (TxB2 by RIA); format: biochemical
T1 construct: from tissue; host or cells: isolated glomeruli of rat kidney (remnant kidney and sham operated rats)
T1 sequence (P49430 1-533): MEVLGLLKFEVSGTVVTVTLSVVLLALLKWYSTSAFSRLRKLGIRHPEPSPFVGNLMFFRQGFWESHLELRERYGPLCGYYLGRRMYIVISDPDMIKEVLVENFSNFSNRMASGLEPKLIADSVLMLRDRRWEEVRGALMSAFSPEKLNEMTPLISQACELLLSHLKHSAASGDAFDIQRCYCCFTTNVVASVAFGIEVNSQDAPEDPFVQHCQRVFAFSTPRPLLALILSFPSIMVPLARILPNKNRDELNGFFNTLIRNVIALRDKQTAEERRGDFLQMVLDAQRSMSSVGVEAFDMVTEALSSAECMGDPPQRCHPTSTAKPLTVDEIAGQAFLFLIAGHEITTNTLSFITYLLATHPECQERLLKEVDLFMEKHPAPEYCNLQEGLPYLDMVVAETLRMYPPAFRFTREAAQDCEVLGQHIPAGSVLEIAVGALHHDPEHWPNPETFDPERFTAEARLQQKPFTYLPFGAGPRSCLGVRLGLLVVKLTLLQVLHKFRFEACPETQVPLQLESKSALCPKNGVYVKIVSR
Protocol: (§1) Charles River C.D. male rats of 6 weeks of age were used for this experiment. […] Four weeks after the second operation the blood pressure was measured and the rats were placed in metabolic cages for evaluation of proteinuria, measured by the method of Lowry. Only the animals with a blood pressure ≥170 mm Hg and an urinary protein excretion ≥100 mg/day were used. Comparative experiments were performed using sham operated rats. Also the in vitro TxA2 synthase inhibiting activities in serum and in isolated glomeruli were studied and compared. Glomerula preparation was performed according to the method previously described and TxB2 was measured by RIA.

serum TxA2 synthase = target: T2, serum TxA2 synthase (Rattus norvegicus, UniProt P49430); assay: in vitro TxA2 synthase inhibiting activity in serum (TxB2 by RIA); format: biochemical
T2 construct: from tissue; host or cells: rat blood / serum (remnant kidney and sham operated rats)
T2 sequence (P49430 1-533): T1 sequence (P49430 1-533)
Protocol: as §1

[1] = system: spontaneous focal glomerulonephritis of the MNS rats; assay: spontaneous focal glomerulonephritis in Milan Normotensive Strain (MNS) rats; format: in vivo, rat
Protocol: Moreover, in the spontaneous focal glomerulonephritis of the MNS rats, FCE 22178 was administered at the […] not treated group.
Sclerotic glomeruli show massive deposition of PAS-stained material.
Flattening and fusion of the foot processes, as well as formation of blebs and of electron dense lysosomes, together with the frequent detachment of the cell from the GMB is regarded to be related to the massive leakage of proteins through the glomerulus.

[2] = system: doxorubicin induced nephrosis; assay: doxorubicin induced nephrosis in rats (oral treatment); format: in vivo, rat; details: 50 mg/kg b.i.d. oral
Protocol: The compound 1,2-dihydro-3-(1-imidazolyl)-6-carboxy-naphthalene (internal code FCE 22178) was orally administered, for doxorubicin induced nephrosis, to rats at a dosage of 50 mg/kg b.i.d. for 7 days starting from the 21st day after doxorubicin injection. A reduction in both proteinuria (from 1018±102 to 751±49 mg/24 h p<0.005) and creatinine serum levels (from 1.85±0.26 to 0.97±0.009 mg/dl p<0.001) was observed.
Moreover, in the spontaneous focal glomerulonephritis of the MNS rats, FCE 22178 was administered at the dosage of 50 mg/kg p.o. die+100 mg/kg/die in drinking water starting from the first month of age and all along the life of the animal and in comparison with a not treated group.
Compound 1,2-dihydro-3-(1-imidazolyl)-6-carboxynaphthalene, internal code FCE 22178, for instance, in this model at the oral dosage of 50 mg/kg b.i.d. for 7 days starting from the 21st after doxorubicin injection lowered triglycerides serum levels from 783±152 to 481.8±84 mg/dl.

[3] = glomeruli of RRM (remnant kidney) rats, read-out: IC50, glomerular TxB2 production
[4] = serum of RRM (remnant kidney) rats, read-out: IC50, serum TxB2 production / TxA2 synthesis

In the case of Cl.O.O=C(O)/C=C/c1ccc(Cn2ccnc2)cc1 [OKYO46, (E)-3-[4-(1H-imidazol-1-ylmethyl)-phenyl]-2-propenoic acid monohydrochloride monohydrate, reference compound], the “selectivity glomeruli vs serum” value (glomerular TxA2 synthase; control sham operated rats) is reported as “losed his selectivity”, the IC50 (glomerular TxA2 synthase; [3]) is reported as 0.09 nM and the IC50 (glomerular TxA2 synthase; glomeruli of control sham operated rats, read-out: IC50, glomeruli) is reported as 1 nM. The IC50 (serum TxA2 synthase; [4]) was 0.6 nM and the IC50 (serum TxA2 synthase; serum of control sham operated rats, read-out: IC50, serum) was 50000 nM.
In the case of O=C(O)c1ccc2c(c1)C=C(n1ccnc1)CC2 [FCE 22178, 1,2-dihydro-3-(1-imidazolyl)-6-carboxynaphthalene], the “production of TxA2 (measured as TxB2 levels) in isolated glomeruli” value ([1]; 50 mg/kg p.o. die + 100 mg/kg/die in drinking water from first month of age, untreated 4.44±1.2 at 8 months, p<0.01) is reported as 2.77±0.53 ng/mg prot, the TxB2 in urine ([1]; 50 mg/kg p.o. die + 100 mg/kg/die in drinking water, pattern as in isolated glomeruli (greatly reduced)) is reported as “The same pattern was observed in urine” and the total cholesterol ([1]; 14 months old rats treated for 2 months, from 223±36) is reported as 130.5 ± 12.2 mg/dL. For the same molecule, the phospholipids ([1]; 14 months old rats treated for 2 months, from 338.6±56) was 197.8 ± 21 mg/dL, the triglycerides ([1]; 14 months old rats treated for 2 months, from 399.6±105) was 169.3 ± 26.1 mg/dL and the “glomerular filtration rate (GFR)” value ([1]; adult MNS rats, 50 mg/kg p.o. die + 100 mg/kg/die in drinking water, printed: 1210±38 in controls vs treated, p<0.01) was 816±45 μl/min/g k.w. For the same molecule, the proteinuria ([1]; adult MNS rats, 50 mg/kg p.o. die + 100 mg/kg/die in drinking water, vs 428.8±42.3 in controls, p<0.01) was 237±30.3 mg/24 h, the “number of sclerotic glomeruli” value ([1]; light microscopy, aged (14 months) MNS rats, control 27%, p<0.05) was 22% and the “entity of flattening and fusion of foot processes in non sclerotic glomeruli” value ([1]; ultrastructural investigation, treated vs untreated MNS rats) was “definitly lower in treated animals”. For the same molecule, the creatinine serum levels ([2]; 7 days from 21st day after doxorubicin, from 1.85±0.26, p<0.001) was 0.97 ± 0.009 mg/dL, the triglycerides serum levels ([2]; 7 days from 21st day after doxorubicin, from 783±152) was 481.8 ± 84 mg/dL and the proteinuria ([2]; 7 days from 21st day after doxorubicin, from 1018±102, p<0.005) was 751±49 mg/24 h. The “urine TxB2 levels” value ([2]; 7 days, from 20.3±2.5 ng/24 h) was “under the detection limit of the method”, the “serum TxB2 levels” value ([2]; 7 days, from 536±55 ng/ml) was 92 ± 8.3 ng/mL and the “selectivity for glomerular TxA2 synthase (vs serum)” value (glomerular TxA2 synthase; RRM rats, compared to OKYO46) was “greater selectivity for glomerular TxA2 synthase”. The IC50 (glomerular TxA2 synthase; [3]) was 0.032 nM, the IC50 (glomerular TxA2 synthase; glomeruli of control sham operated rats, read-out: IC5 (so in the source), glomeruli) was 0.07 nM and the IC50 (serum TxA2 synthase; [4]) was 1.7 nM. For the same molecule, the IC50 (serum TxA2 synthase; serum of control sham operated rats, read-out: IC5 (so in the source), serum) was 1 nM.
